Where two headings read alike, the source gives them in different places.
Columns and labels:
[1] = biological target: BTK (Homo sapiens, UniProt Q06187); experiment: Degradation of BTK protein in Namalwa cells (Western blot; DC50, Dmax); conditions: for DC50: cell line not given
[2] = system: JeKo-1 cells; experiment: Antiproliferative effect, MTS cell viability assay, JeKo-1 cells; assay type: cell-based; conditions: Homo sapiens; JeKo-1 mantle cell lymphoma cells; read-out: IC50 (anti-proliferation) JeKO-1 cells
Summary of the method: (§1)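 Mino and JeKo-1 mantle B-cell lymphoma lines were exposed to compound at 0, 0.001, 0.01, 0.1, 1 and 10 μM for 72 h. Viability was read by MTS reduction to formazan, measured as absorbance at 490 nm.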

[3] = system: Mino cells; experiment: Antiproliferative effect, MTS cell viability assay, Mino cells; assay type: cell-based; conditions: Homo sapiens, MINO, Mino mantle cell lymphoma cells; read-out: IC50 (anti-proliferation) Mino cells
Summary of the method: as §1

[4] = read-out: DC50 (BTK degradation), concentration giving 50% reduction of BTK expression level
[5] = read-out: Dmax (BTK degradation)

Sequence of BTK (Q06187 whole entry): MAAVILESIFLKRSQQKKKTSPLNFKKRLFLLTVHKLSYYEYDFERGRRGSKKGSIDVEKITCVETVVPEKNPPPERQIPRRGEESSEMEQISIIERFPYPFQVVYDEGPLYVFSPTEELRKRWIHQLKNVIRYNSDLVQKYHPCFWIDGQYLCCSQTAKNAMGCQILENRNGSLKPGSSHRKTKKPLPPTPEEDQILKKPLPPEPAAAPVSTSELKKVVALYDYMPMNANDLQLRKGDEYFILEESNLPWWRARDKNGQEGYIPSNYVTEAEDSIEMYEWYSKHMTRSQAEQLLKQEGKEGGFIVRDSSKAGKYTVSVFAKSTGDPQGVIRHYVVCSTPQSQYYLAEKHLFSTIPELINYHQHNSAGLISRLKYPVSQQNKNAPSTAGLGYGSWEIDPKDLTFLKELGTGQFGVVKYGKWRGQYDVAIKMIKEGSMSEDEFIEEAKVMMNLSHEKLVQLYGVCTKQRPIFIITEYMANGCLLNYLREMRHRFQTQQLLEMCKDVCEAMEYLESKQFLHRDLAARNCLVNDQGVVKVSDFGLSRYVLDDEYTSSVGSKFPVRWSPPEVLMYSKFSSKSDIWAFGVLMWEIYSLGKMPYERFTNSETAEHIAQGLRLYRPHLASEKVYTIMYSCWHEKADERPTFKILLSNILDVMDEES

SMILES | Dmax [1] | DC50 ([1]; BTK degradation) | IC50 [2] | IC50 [3] | DC50 [1, 4] | Dmax [1, 5] | degradation of BTK protein ([1]; Namalwa B lymphocyte cells, various concentrations, 24 hours, Western blot)
NC(=O)c1c(-c2ccc(Oc3ccccc3)cc2)nn2c1NCCC2C1CCN(C2CCN(CC3CCN(c4ccc5c(c4)C(=O)N(C4CCC(=O)NC4=O)C5=O)CC3)CC2)CC1 (stereo not drawn) [Compound 305, 7-(1′-((1-(2-(2,6-dioxopiperidin-3-yl)-1,3-dioxoisoindolin-5-yl)piperidin-4-yl)methyl)-[1,4′-bipiperidin]-4-yl)-2-(4-phenoxyphenyl)-4,5,6,7-tetrahydropyrazolo[1,5-a]pyrimidine-3-carboxamide] | > 90% | 0.01 to 0.05 µM | 1 to 10 µM | 1 to 10 µM |  |  | 
NC(=O)c1c(-c2ccc(Oc3ccccc3)cc2)nn2c1NCC[C@H]2C1CCN(C2CCN(C(=O)N3CCN(CC4CCN(c5ccc6c(c5)C(=O)N(C5CCC(=O)NC5=O)C6=O)CC4)CC3)CC2)CC1 (stereo partly drawn) [Compound 391, (7S)-7-(1′-(4-((1-(2-(2,6-dioxopiperidin-3-yl)-1,3-dioxoisoindolin-5-yl)piperidin-4-yl)methyl)piperazine-1-carbonyl)-[1,4′-bipiperidin]-4-yl)-2-(4-phenoxyphenyl)-4,5,6,7-tetrahydropyrazolo[1,5-a]pyrimidine-3-carboxamide] | > 75% | 0.01 to 0.05 µM | > 10 µM | > 10 µM |  |  | 
NC(=O)c1c(-c2ccc(Oc3ccccc3)cc2)nn2c1NCCC2C1CCN(CC2CCN(C(=O)N3CCN(C4CCN(c5ccc6c(c5)CN(C5CCC(=O)NC5=O)C6=O)CC4)CC3)CC2)CC1 (stereo not drawn) [Compound 362, 7-(1-((1-(4-(1-(2-(2,6-dioxopiperidin-3-yl)-1-oxoisoindolin-5-yl)piperidin-4-yl)piperazine-1-carbonyl)piperidin-4-yl)methyl)piperidin-4-yl)-2-(4-phenoxyphenyl)-4,5,6,7-tetrahydropyrazolo[1,5-a]pyrimidine-3-carboxamide] | > 90% | < 0.01 µM | 1 to 10 µM | 1 to 10 µM |  |  | 
NC(=O)c1c(-c2ccc(Oc3ccccc3)cc2)nn2c1NCCC2C1CCN(C2CCN(C(=O)N3CCN(CC4CCN(c5ccc6c(c5)CN(C5CCC(=O)NC5=O)C6=O)CC4)CC3)CC2)CC1 (stereo not drawn) [Compound 352, 7-(1′-(4-((1-(2-(2,6-dioxopiperidin-3-yl)-1-oxoisoindolin-5-yl)piperidin-4-yl)methyl)piperazine-1-carbonyl)-[1,4′-bipiperidin]-4-yl)-2-(4-phenoxyphenyl)-4,5,6,7-tetrahydropyrazolo[1,5-a]pyrimidine-3-carboxamide] | > 90% | < 0.01 µM | 1 to 10 µM | < 1 µM |  |  | 
NC(=O)c1c(-c2ccc(Oc3ccccc3)cc2)nn2c1NCC[C@H]2C1CCN(C2CCN(C(=O)N3CCC(CN4CCC(c5ccc6c(c5)C(=O)N(C5CCC(=O)NC5=O)C6=O)CC4)CC3)CC2)CC1 (stereo partly drawn) [Compound 395, (7S)-7-(1′-(4-((4-(2-(2,6-dioxopiperidin-3-yl)-1,3-dioxoisoindolin-5-yl)piperidin-1-yl)methyl)piperidine-1-carbonyl)-[1,4′-bipiperidin]-4-yl)-2-(4-phenoxyphenyl)-4,5,6,7-tetrahydropyrazolo[1,5-a]pyrimidine-3-carboxamide] |  |  | 1 to 10 µM | 1 to 10 µM | 0.01 to 0.05 µM | > 75% | 
Nc1ncnc2c1c(-c1ccc(Oc3ccccc3)cc1)nn2C1CCN(C2CCN(C(=O)N3CCC(CN4CCC(c5ccc6c(c5)CN(C5CCC(=O)NC5=O)C6=O)CC4)CC3)CC2)CC1 (stereo not drawn) [Compound 244, 3-(5-(1-((1-(4-(4-amino-3-(4-phenoxyphenyl)-1H-pyrazolo[3,4-d]pyrimidin-1-yl)-[1,4′-bipiperidine]-1′-carbonyl)piperidin-4-yl)methyl)piperidin-4-yl)-1-oxoisoindolin-2-yl)piperidine-2,6-dione] | > 90% | < 0.01 µM | 1 to 10 µM | 1 to 10 µM |  |  | 
Nc1ncnc2c1c(-c1ccc(Oc3ccccc3)cc1)nn2C1CCN(CC2CCN(CCN3CCC(c4ccc5c(c4)C(=O)N(C4CCC(=O)NC4=O)C5=O)CC3)CC2)CC1 (stereo not drawn) [Compound 205, 5-(1-(2-(4-((4-(4-amino-3-(4-phenoxyphenyl)-1H-pyrazolo[3,4-d]pyrimidin-1-yl)piperidin-1-yl)methyl)piperidin-1-yl)ethyl)piperidin-4-yl)-2-(2,6-dioxopiperidin-3-yl)isoindoline-1,3-dione] | > 90% | 0.01 to 0.05 µM | 1 to 10 µM | < 1 µM |  |  | 
Nc1ncnc2c1c(-c1ccc(Oc3ccccc3)cc1)nn2[C@@H]1CCCN(C2CCN(C(=O)N3CCC(CCCN4CCC(c5ccc6c(c5)C(=O)N(C5CCC(=O)NC5=O)C6=O)CC4)CC3)CC2)C1 (stereo partly drawn) [Compound 197, 5-(1-(3-(1-((R)-3-(4-amino-3-(4-phenoxyphenyl)-1H-pyrazolo[3,4-d]pyrimidin-1-yl)-[1,4′-bipiperidine]-1′-carbonyl)piperidin-4-yl)propyl)piperidin-4-yl)-2-(2,6-dioxopiperidin-3-yl)isoindoline-1,3-dione] | > 75% | 0.01 to 0.05 µM | > 10 µM | 1 to 10 µM |  |  | 
Nc1ncnc2c1c(-c1ccc(Oc3ccccc3)cc1)nn2C1CCN(C2CCN(CC3CN(CC4CN(c5ccc6c(c5)C(=O)N(C5CCC(=O)NC5=O)C6=O)C4)C3)CC2)CC1 (stereo not drawn) [Compound 437] |  |  | 1 to 10 µM | 1 to 10 µM | 0.01 to 0.05 µM | > 90% | dose-dependent degradation
Nc1ncnc2c1c(-c1ccc(Oc3ccccc3)cc1)nn2C1CCN(C2CCN(C(=O)N3CCC(CCCC4CCN(c5ccc6c(c5)CN(C5CCC(=O)NC5=O)C6=O)CC4)CC3)CC2)CC1 (stereo not drawn) [Compound 266, 3-(5-(4-(3-(1-(4-(4-amino-3-(4-phenoxyphenyl)-1H-pyrazolo[3,4-d]pyrimidin-1-yl)-[1,4′-bipiperidine]-1′-carbonyl)piperidin-4-yl)propyl)piperidin-1-yl)-1-oxoisoindolin-2-yl)piperidine-2,6-dione] | > 75% | 0.01 to 0.05 µM | > 10 µM | 1 to 10 µM |  |  | 
NC1=NC=NC2C1C(c1ccc(Oc3ccccc3)cc1)=NN2[C@@H]1CCCN(C(=O)N2CC(C3CN(c4ccc5c(c4)C(=O)N(C4CCC(=O)NC4=O)C5=O)C3)C2)C1 (stereo partly drawn) [Compound 497, 5-(1′-((3R)-3-(4-amino-3-(4-phenoxyphenyl)-3a,7a-dihydro-1H-pyrazolo[3,4-d]pyrimidin-1-yl)piperidine-1-carbonyl)-[3,3′-biazetidin]-1-yl)-2-(2,6-dioxopiperidin-3-yl)isoindoline-1,3-dione] |  |  | < 1 µM | < 1 µM | 0.01 to 0.05 µM | > 90% | 
NC(=O)c1c(-c2ccc(Oc3ccccc3)cc2)nn2c1NCCC2C1CCN(C(=O)N2CCC(CC3CCN(c4ccc5c(c4)CN(C4CCC(=O)NC4=O)C5=O)CC3)CC2)CC1 (stereo not drawn) [Compound 278, 7-(1-(4-((1-(2-(2,6-dioxopiperidin-3-yl)-1-oxoisoindolin-5-yl)piperidin-4-yl)methyl)piperidine-1-carbonyl)piperidin-4-yl)-2-(4-phenoxyphenyl)-4,5,6,7-tetrahydropyrazolo[1,5-a]pyrimidine-3-carboxamide] | > 90% | < 0.01 µM | 1 to 10 µM | < 1 µM |  |  | 
Nc1ncnc2c1c(-c1ccc(Oc3ccccc3)cc1)nn2C1CCN(C[C@@H]2CCN(CC3CCN(c4ccc5c(c4)C(=O)N(C4CCC(=O)NC4=O)C5=O)CC3)C2)CC1 (stereo partly drawn) [Compound 445b, 5-(4-(((S)-3-((4-(4-amino-3-(4-phenoxyphenyl)-1H-pyrazolo[3,4-d]pyrimidin-1-yl)piperidin-1-yl)methyl)pyrrolidin-1-yl)methyl)piperidin-1-yl)-2-(2,6-dioxopiperidin-3-yl)isoindoline-1,3-dione] |  |  | 1 to 10 µM | 1 to 10 µM | 0.01 to 0.05 µM | > 90% | 
NC(=O)c1c(-c2ccc(Oc3ccccc3)cc2)nn2c1NCCC2C1CCN(CC2CCN(CC3CCN(c4ccc5c(c4)CN(C4CCC(=O)NC4=O)C5=O)CC3)CC2)CC1 (stereo not drawn) [Compound 314, 7-(1-((1-((1-(2-(2,6-dioxopiperidin-3-yl)-1-oxoisoindolin-5-yl)piperidin-4-yl)methyl)piperidin-4-yl)methyl)piperidin-4-yl)-2-(4-phenoxyphenyl)-4,5,6,7-tetrahydropyrazolo[1,5-a]pyrimidine-3-carboxamide] | > 90% | 0.01 to 0.05 µM | 1 to 10 µM | 1 to 10 µM |  |  | 
Nc1ncnc2c1c(-c1ccc(Oc3ccccc3)cc1)nn2C1CCN(C2CCN(CCN3CCC(c4ccc(NC5CCC(=O)NC5=O)cc4)CC3)CC2)CC1 (stereo not drawn) [Compound 579, 3-((4-(1-(2-(4-(4-amino-3-(4-phenoxyphenyl)-1H-pyrazolo[3,4-d]pyrimidin-1-yl)-[1,4′-bipiperidin]-1′-yl)ethyl)piperidin-4-yl)phenyl)amino)piperidine-2,6-dione] |  |  | < 1 µM | < 1 µM | 0.01 to 0.05 µM | > 90% | 
Nc1ncnc2c1c(-c1ccc(Oc3ccccc3)cc1)nn2C1CCN(CCN2CCC(CSc3ccc4c(c3)C(=O)N(C3CCC(=O)NC3=O)C4=O)CC2)CC1 (stereo not drawn) [Compound 469, 5-(((1-(2-(4-(4-amino-3-(4-phenoxyphenyl)-1H-pyrazolo[3,4-d]pyrimidin-1-yl)piperidin-1-yl)ethyl)piperidin-4-yl)methyl)thio)-2-(2,6-dioxopiperidin-3-yl)isoindoline-1,3-dione] |  |  | 1 to 10 µM | 1 to 10 µM | < 0.01 µM | > 90% | 
Nc1ncnc2c1c(-c1ccc(Oc3ccccc3)cc1)nn2C1CCN(CC2CCN(CCCN3CCC(c4ccc5c(c4)CN(C4CCC(=O)NC4=O)C5=O)CC3)CC2)CC1 (stereo not drawn) [Compound 210, 3-(5-(1-(3-(4-((4-(4-amino-3-(4-phenoxyphenyl)-1H-pyrazolo[3,4-d]pyrimidin-1-yl)piperidin-1-yl)methyl)piperidin-1-yl)propyl)piperidin-4-yl)-1-oxoisoindolin-2-yl)piperidine-2,6-dione] | > 75% | 0.01 to 0.05 µM | 1 to 10 µM | 1 to 10 µM |  |  | 
